Like-named read-outs stand apart in the source and are kept apart here.
What was measured:
[1] = Merck Index; cited from earlier work
[2] = Source text: Absorption of nicotine from the oral cavity to the systemic circulation is dependent on the pH of the saliva and the pKa of nicotine, which is about 7.8. Assuming a pH of the saliva of 6.8 only about 10% of the nicotine in saliva will be in the free base form. Thus, in order to promote absorption of nicotine in a free base form, which is the form predominantly absorbed through the mucosa, the pH of the saliva must be increased. At a pH of 8.8 about 90% of the nicotine in saliva will then be in the free base form.
[3] = smoking of a cigarette; cited from earlier work
[4] = Buffer capacity determination by titration with 0.1 M HCl; assay type: physicochemical; settings: without added buffering agent
Protocol: Method: 10.0 ml of the respective below solutions was titrated with 0.1 M HCl to pH 7.0. The amount of 0.1 M HCl needed to decrease pH from 9.0 to 8.0 was determined

Compound: CN1CCCC1c1cccnc1 (centres unmarked) [nicotine, 3-(1-methyl-2-pyrrolidinyl)-pyridine]
- amount of nicotine that may kill an adult [1]: Approximately forty
- nicotine in saliva in the free base form ([2]; saliva pH 6.8): about 10%
- nicotine in saliva in the free base form ([2]; saliva pH 8.8): about 90%
- time for nicotine to reach the brain after inhalation [3]: around ten
- buffering capacity on its own, in words [4]: too weak a buffering capacity on its own

— patent US20130237570A1 (priority 2002, published 2013)
